Series [1] concerns Normal human keratinocytes. The series can be described thus: Cornified envelope formation (keratinocyte differentiation). In kind it is cell-based. The note with it: 4 h plus 48 h exposure, increasing concentrations. The method, then:
Normal human keratinocytes were grown to confluence at low calcium concentration in the presence of 5% FCS, 1 µM isoproterenol and 10 ng EGF per ml. They were first exposed for 4 h to increasing concentrations of test compounds and subsequently reincubated for 48 h in medium containing normal calcium concentration and the same additives, test compounds and [³H]-leucine (1 µCi/ml). Thereafter, both spontaneous and ionophore-induced cornified envelope (CE) formation was determined [King et al. (1986) Exp. Cell. Res., 167: 252].

Series [2] concerns PKC from the central nervous system. The series can be described thus: Phosphorylation of synaptosomal plasma membranes: B-50 phosphorylation. Type of series: biochemical. The note with it: for phosphorylation of B-50 (% of control): without addition of CaM. The method, then: Subcellular fractionation and phosphorylation assay were performed according to Kristjansson et al., (1982). […] After a preincubation at 30°C for 5 min, the phosphorylation reaction was started by adding the ATP. The reaction was stopped after 15 sec. All compounds to be tested were present at the start of the preincubation. […]

Series [3] relates to TPA-induced ear edema in mice. Description: Intraperitoneal administration, TPA-induced ear edema in mice. The note with it: intraperitoneally, 30 mg/kg, 3 h after challenge. Type of series: in vivo. The method, then:
Mice were injected intraperitoneally with 30, 10 or 3.3 mg/kg body weight of the test substances, sphingosine in carboxymethylcellulose (0.5%) and tiflucarbine in physiologic Saline, 10 ml/kg body weight. After 60 minutes the mire were challenged on the left ear with a 0.01 wt% solution of 12-O-tetradecanoylphorbol-13-acetate (TPA) in a 80/20 mixture of acetone/water. At 0, 3, 6 and 24 h after challenge, ear thickness was determined.

For a further series, the system named is rat brain synaptosomes. Description: Noradrenaline release from permeated synaptosomes. The note with it: 100 µM to 1 µM; low (10 nM) and high (10 µM) Ca²⁺. Type of series: cell-based. The method, then:
Highly purified synaptosomes were prepared according to Dunkley and Robinson (1987). The synaptosomes were diluted with 3 ml buffer A (123 mM NaCl, 5 mM KCl, 2 mM CaCl₂, […], 1.15 mM NaH₂PO₄, 5.6 mM glucose, 20 mM PIPES pH 6.8, gassed with O₂:CO₂, 95:5) and incubated for 15 min at 37°C. Then 2.5 µCi noradrenalin (NA) was added, incubation was continued for 15 min and the synaptosomes were centrifuged for 20 min at 600 x g. The resulting pellet was washed twice in buffer A without CaCl₂ and resuspended (1 mg protein/ml).
For measurement of NA release, prelabeled synaptosomes were incubated at 37°C in buffer A containing Na₂ATP and EGTA-buffered Ca²⁺ in concentrations as indicated (final volume 120 µl). The release reaction was started by adding synaptosomes (20 µg protein) to the reaction mixture and terminated after 5 min by 30 sec centrifugation at 10,000 x g. The supernatant (90 µl) was collected and counted in a Packard Model 2,000 CA liquid scintillation counter with Picofluor as a scintillation cocktail. NA release was expressed as % of total [³H]-NA incorporated. Total NA incorporation was determined by measuring [³H]-incorporation in 20 µg prelabeled washed synaptosomes.

The subject of a further series is 50 kDa protein. Description: Phosphorylation of synaptosomal plasma membranes: CaM-dependent phosphorylation of the 50 kDa protein. Type of series: biochemical. The note with it: in the presence of exogenous CaM (3 units/assay); read-out: IC₅₀-value, CaM-dependent phosphorylation of the 50 kDa protein. The method, then: Subcellular fractionation and phosphorylation assay were performed according to Kristjansson et al., (1982). […] After a preincubation at 30°C for 5 min, the phosphorylation reaction was started by adding the ATP. The reaction was stopped after 15 sec. All compounds to be tested were present at the start of the preincubation. […] Phosphorylation of B-50 and the 50 kDa protein, which was only phosphorylated after addition of CaM, was measured in the presence of exogenous CaM (3 units/assay) and quantified.

For the next series, the system named is PMHL. Description: Nonspecific cytotoxicity, trypane blue exclusion test. Type of series: cell-based, human. The method, then: Nonspecific cytotoxicity of the test compounds on PMHL was assessed by […] blue exclusion test.

Results on one compound are retold here after EP0499337A1, “Use of tetra:hydro-thieno-pyrido-indole derivatives for the treatment of skin disorders” (YAMANOUCHI EUROPE B.V., priority 1991, dated 1992).

In the case of `CCN1CCc2[nH]c3cc(F)c4scc(C)c4c3c2C1` [Tiflucarbine, 1-methyl-9-ethyl-4-fluoro-7,8,9,10-tetra:hydro-thieno-[3,2-e]-pyrido-[4,3-b]-indole lactate], the “spontaneous CE formation” value in series [1] is “no effect”. In series [2] (in the presence of exogenous CaM (3 units/assay)), the B-50 phosphorylation result is “did not inhibit B-50 phosphorylation”. For the same compound, the “phosphorylation of B-50 (% of control)” value is 82 ± 14 % of control in series [2] (concentration 1 µM), 110 ± 15 % of control in series [2] (concentration 10 µM), 92 ± 9 % of control in series [2] (concentration 100 µM) and 95 ± 11 % of control in series [2] (concentration l mM). The “ear edema (ear thickness)” value in series [3] is on record as “reduced ear edema”. The noradrenaline release result in the series on rat brain synaptosomes is “did not display any significant effects”. Also, the IC50 with 50 kDa protein was under 1000 nM. This compound registered a Trypane blue with PMHL of 300 µM.
